These results are taken from patent publication US20240131028A1, “CHEMOVACCINATION AGAINST PLASMODIUM INFECTION WITH SELECTIVE PLASMEPSIN X INHIBITORS” (Merck Sharp & Dohme LLC, priority 2021, published 2024).

The first assay has as its system ring stage parasites (Pf). The assay is described as follows: Parasite lactate dehydrogenase (LDH) growth assay (Parasite Assay, PfLDH Assay). It counts as cell-based, P. falciparum. The note with it: Plasmodium falciparum, 72 h, Table 3; 72 hours growth, LDH readout; read-out: EC50. The method, then:
The parasite stock was maintained at 4% haematocrit in RPMI-Hepes media buffered with sodium bicarbonate and supplemented with 5% heat inactivated human serum and 0.5% albumax. […] On the day of assay set up, a blood smear of the parasite culture was Giemsa stained and counted. The parasitemia was adjusted to 0.7% rings and the haematocrit was diluted to 2% in RPMI-Hepes media buffered with sodium bicarbonate and supplemented with 5% heat inactivated human serum and 0.5% albumax. 30 μl of diluted parasites are then added into 10 μl of media+compound in pre-prepared Greiner TC assay plates. Parasite assay plates were placed in gassed humidified boxes in single layer and allowed to incubate at 37° C. for 72 hours. After 72 hours growth, assay plates were sealed with parafilm and frozen flat, in single file at −80° C. overnight. On the following day, assay plates were allowed to thaw at room temperature for 4 hours to which an LDH assay was performed to measure parasite growth.
Broadly, the EC50 is the midpoint of the concentration-response curve. Take `COCC[C@H]([C@H]1C[C@@H]1C(=O)N[C@@H]1CC(C)(C)Oc2cc(OC)ccc21)N1C(=N)NC(C)(C)CC1=O` [Example 70A]: the EC50 is 77 nM.

Consider `COCC[C@H]([C@H]1C[C@@H]1C(=O)N[C@@H]1CC(C)(C)Oc2cc(Cl)ccc21)N1C(=N)NC(C)(C)CC1=O` [Example 89B], for which the EC50 stood at 22 nM.

`CC[C@@]1(C)CC(=O)N([C@H](c2cncc(F)c2)[C@H]2C[C@@H]2C(=O)N[C@@H]2c3ccccc3OCC2(C)C)C(=N)N1` [Example 102A]: the EC50 was 0.8 nM.

For the compound `CC1(C)CC(=O)N([C@H](c2cccnc2)[C@H]2C[C@@H]2C(=O)NC2CC(C)(C)Oc3c(Cl)cc(Cl)cc32)C(=N)N1` (some centres unmarked) [Example 94A], the EC50 was found to be 0.9 nM.

Take `CCC1(CC)CC(=O)N([C@H](CCOC)[C@H]2C[C@@H]2C(=O)N[C@@H]2c3ccccc3C[C@@H]2O)C(=N)N1` [Example 13]: the EC50 came to 24 nM.

For `COCC[C@H]([C@H]1C[C@@H]1C(=O)N[C@H]1CC(C)(C)Oc2cccc(OC)c21)N1C(=N)NC(C)(C)CC1=O` [Example 74B], the EC50 was 3.1 nM.

Turning to `CC1(C)CC(=O)N(C(c2cccc(C#N)c2)[C@H]2C[C@@H]2C(=O)NC2CC(C)(C)Oc3ccc(F)cc32)C(=N)N1` (some centres unmarked) [Example 53A], the EC50 came out at 3.1 nM.

For `CC[C@@]1(C)CC(=O)N(C(c2cncc(F)c2)[C@H]2C[C@@H]2C(=O)N[C@@H]2c3ccccc3OCC2(C)C)C(=N)N1` (some centres unmarked) [Example 102B], the EC50 is 2.5 nM.

Regarding `CCC1(CC)CC(=O)N([C@H](c2cccnc2)[C@H]2C[C@@H]2C(=O)N[C@@H]2c3ccccc3C[C@@H]2O)C(=N)N1` [Example 10], the EC50 was 27 nM.

As to `CCC1(CC)CC(=O)N(C[C@@H]2[C@@H](C(=O)N[C@H]3CC(C)(C)Oc4ccccc43)C2(C)C)C(=N)N1` [Example 34], the EC50 was 286 nM.

On to `CC1[C@H]([C@@H](c2cccnc2)N2C(=N)NC(C)(C)CC2=O)[C@H]1C(=O)N[C@H]1CC(C)(C)Oc2ccccc21` (some centres unmarked) [Example 57A], for which the EC50 worked out at 3.2 nM.

For `COCC[C@H]([C@H]1C[C@@H]1C(=O)NC1CC(C)(C)Oc2ccccc21)N1C(=N)NC(C)(C)CC1=O` (some centres unmarked) [Example 23A], the EC50 came to 16 nM.

Turning to `CC1(C)CC(=O)N([C@H](c2cncc(Cl)c2)[C@H]2C[C@@H]2C(=O)N[C@@H]2c3ccccc3OC(C)(C)[C@H]2O)C(=N)N1` [Example 59], the EC50 was 3.8 nM.

With `COCC[C@H]([C@H]1C[C@@H]1C(=O)N[C@@H]1CC(C)(C)Oc2cc(C)c(Cl)cc21)N1C(=N)NC(C)(C)CC1=O` [Example 137A], the half-maximal effective concentration (EC50) stood at 12 nM.

Consider `COCC[C@H]([C@H]1C[C@@H]1C(=O)N[C@@H]1CC(C)(C)Oc2ccc(F)cc21)N1C(=N)NC(C)(C)CC1=O` [Example 72A], for which the EC50 was 11 nM.

In the case of `CC1(C)CC(=O)N([C@H](c2cccc(C#N)c2)[C@H]2C[C@@H]2C(=O)N[C@H]2C[C@H](C(F)(F)F)Oc3ccccc32)C(=N)N1` [Example 52], the EC50 was 1 nM.

In the case of `CCC1(CC)CC(=O)N([C@@H](c2cccnc2)[C@@H]2[C@@H](C(=O)N[C@H]3C[C@H](C(F)(F)F)Oc4ccccc43)C2(C)C)C(=N)N1` [Example 44A], the EC50 was 8.3 nM.

Regarding `COc1cccc2c1[C@@H](NC(=O)[C@H]1C[C@@H]1CN1C(=N)NC(C)(C)CC1=O)CC(C)(C)O2` [Example 73], the EC50 came out at 192 nM.

In the case of `Cc1ccc2c(c1)OC(C)(C)C[C@@H]2NC(=O)[C@H]1C[C@@H]1CN1C(=N)NC(C)(C)CC1=O` [Example 84], the EC50 was 289 nM.

Consider `CCC1(CC)CC(=O)N([C@H](CCOC)[C@H]2C[C@@H]2C(=O)N[C@@H]2c3ccccc3OCC2(C)C)C(=N)N1` [Example 19A], for which the EC50 came out at 28 nM.

Regarding `CCC1(CC)CC(=O)N([C@H](c2cccnc2)[C@@H]2[C@@H](C(=O)N[C@H]3CC(C)(C)Oc4ccccc43)C2(C)C)C(=N)N1` [Example 48A], the EC50 turned out to be 2.7 nM.

On to `COCC[C@@H]([C@H]1C[C@@H]1C(=O)N[C@H]1C[C@@H](C(F)(F)F)Oc2ccccc21)N1C(=N)NC(C)(C)CC1=O` [Example 24C], for which the EC50 turned out to be 120 nM.

`COCC[C@H]([C@H]1C[C@@H]1C(=O)N[C@@H]1CC(C)(C)Oc2cccc(OC(F)(F)F)c21)N1C(=N)NC(C)(C)CC1=O` [Example 107B]: the EC50 came to 11 nM.

As to `CC1(C)CC(=O)N([C@@H](c2cccnc2)[C@H]2C[C@@H]2C(=O)N[C@H]2CC(C)(C)Oc3cc(Cl)ccc32)C(=N)N1` [Example 91A], the EC50 amounted to 0.8 nM.

For the compound `CCC1(CC)CC(=O)N(C[C@H]2C(C)[C@@H]2C(=O)N[C@H]2C[C@@H](C(F)(F)F)Oc3ccccc32)C(=N)N1` (some centres unmarked) [Example 28A], the EC50 came out at 12 nM.

On to `CCC1(CC)CC(=O)N([C@@H](c2cccnc2)[C@H]2C(C)[C@@H]2C(=O)N[C@H]2CC(C)(C)Oc3ccccc32)C(=N)N1` (some centres unmarked) [Example 56A], for which the concentration for a half-maximal effect (EC50) amounted to 65 nM.

For `CC[C@]1(C)CC(=O)N([C@H](CCOC)[C@H]2C[C@@H]2C(=O)N[C@H]2CC(C)(C)Oc3ccc(Cl)cc32)C(=N)N1` [Example 124], the EC50 turned out to be 0.8 nM.

Turning to `CC[C@@]1(C)CC(=O)N(C(c2cncc(F)c2)[C@H]2C[C@@H]2C(=O)N[C@H]2CC(C)(C)Oc3ccccc32)C(=N)N1` (some centres unmarked) [Example 67A], the EC50 was determined as 0.9 nM.

Regarding `COCC[C@H]([C@H]1C[C@@H]1C(=O)N[C@H]1CC(C)(C)Oc2cc(OC)ccc21)N1C(=N)NC(C)(C)CC1=O` [Example 70B], the EC50 is 19 nM.

Still in this assay, the particulars now being: Table 3; 72 hours growth, LDH readout; read-out: EC50.
In the case of `CC[C@]1(C)CC(=O)N(C(c2cncc(F)c2)[C@H]2C[C@@H]2C(=O)N[C@@H]2c3ccccc3OC(C)(C)C2(C)O)C(=N)N1` (single isomer, unassigned) [Example 103B], the EC50 was determined as 2.1 nM.

For `CCC1(CC)CC(=O)N(CC2C(C(=O)N[C@H]3C[C@@H](C(F)(F)F)Oc4ccccc43)C2(F)F)C(=N)N1` (single isomer, unassigned) [Example 17A], the EC50 came to 47 nM.

With `COCC[C@H]([C@H]1C[C@@H]1C(=O)NC1CC2(CCC2)Oc2ccccc21)N1C(=N)NC(C)(C)CC1=O` (some centres unmarked) [Example 131B], the EC50 was determined as 6.1 nM.

Consider `CCC1(CC)CC(=O)N(C[C@H]2C(C)[C@@H]2C(=O)N[C@H]2c3ccccc3CC2(C)O)C(=N)N1` (single isomer, unassigned) [Example 29C], for which the EC50 turned out to be 113 nM.

Regarding `COCC[C@H]([C@H]1C[C@@H]1C(=O)NC1CC(C)(C(C)C)Oc2ccccc21)N1C(=N)NC(C)(C)CC1=O` (single isomer, unassigned) [Example 80B], the EC50 was 6.6 nM.

On to `CC[C@]1(C)CC(=O)N(C(c2cncc(F)c2)[C@H]2C[C@@H]2C(=O)NC2c3ccccc3OC(C(F)(F)F)C2O)C(=N)N1` (single isomer, unassigned) [Example 104A], for which the EC50 turned out to be 4 nM.

For the compound `CC[C@@]1(C)CC(=O)N(C(c2cncc(F)c2)[C@H]2C[C@@H]2C(=O)N[C@H]2CC(C)(C)Oc3ccccc32)C(=N)N1` (some centres unmarked) [Example 67B], the EC50 was 0.6 nM.

Consider `CCC1(CC)CC(=O)N(C[C@H]2C(C)[C@@H]2C(=O)N[C@@H]2c3ccccc3OCC2(C)O)C(=N)N1` (single isomer, unassigned) [Example 35B], for which the EC50 was 220 nM.

With `CCC1(CC)CC(=O)N(CC2C(C(=O)N[C@H]3C[C@@H](C(F)(F)F)Oc4ccccc43)C2(F)F)C(=N)N1` (single isomer, unassigned) [Example 17B], the EC50 came to 20 nM.

Consider `CC[C@@]1(C)CC(=O)N(C(c2cncc(F)c2)[C@H]2C[C@@H]2C(=O)N[C@H]2CC(C)(C)Oc3ccc(F)cc32)C(=N)N1` (some centres unmarked) [Example 69A], for which the EC50 was found to be 1 nM.

As for `CCC1(C)CC(NC(=O)[C@H]2C[C@@H]2[C@@H](c2cccnc2)N2C(=N)NC(C)(C)CC2=O)c2ccccc2O1` (single isomer, unassigned) [Example 105B], the EC50 is 1.8 nM.

Consider `CC[C@@]1(C)CC(=O)N(C(c2cncc(F)c2)[C@H]2C[C@@H]2C(=O)N[C@H]2CC(C)(C)Oc3ccc(F)cc32)C(=N)N1` (some centres unmarked) [Example 69D], for which the EC50 is 0.3 nM.

On to `CC1(C)CC(=O)N(C[C@H]2C[C@@H]2C(=O)N[C@H]2CC(C3CC3)Oc3ccccc32)C(=N)N1` (some centres unmarked) [Example 140B], for which the EC50 came out at 280 nM.

Regarding `CCC1(C)CC(NC(=O)[C@H]2C[C@@H]2[C@@H](CCOC)N2C(=N)NC(C)(C)CC2=O)c2ccccc2O1` (single isomer, unassigned) [Example 75C], the EC50 was determined as 7 nM.

On to `COCC1(C)CC(NC(=O)[C@H]2C[C@@H]2[C@@H](c2cccnc2)N2C(=N)NC(C)(C)CC2=O)c2ccccc2O1` (single isomer, unassigned) [Example 108D], for which the EC50 worked out at 8.5 nM.

Still in this assay, the particulars now being: Table 4; 72 hours growth, LDH readout; read-out: EC50 (Table 4).
For `CCC1(CC)CC(=O)N(C(CC(C)OC)[C@H]2C[C@@H]2C(=O)N[C@@H]2CC(C)(C)Oc3ccccc32)C(=N)N1` (single isomer, unassigned) [Example 143B], the EC50 was 2.4 nM.

For `CCC1(CC)CC(=O)N(C(CC(C)OC)[C@H]2C[C@@H]2C(=O)N[C@@H]2CC(C)(C)Oc3ccccc32)C(=N)N1` (single isomer, unassigned) [Example 143C], the EC50 turned out to be 57.9 nM.

As to `CCC1(CC)CC(=O)N(C(CC(C)OC)[C@H]2C[C@@H]2C(=O)N[C@H]2CC(C)(C)Oc3ccccc32)C(=N)N1` (single isomer, unassigned) [Example 142A], the EC50 worked out at 1.9 nM.
